The values below are quoted from earlier work in PMC8541353, “A Novel Phenylpyrrolidine Derivative: Synthesis and Effect on Cognitive Functions in Rats with Experimental Ishemic Stroke” (Molecules, 2021).

The structures appear in SMILES notation.

For the series the following is noted: cited from earlier work.

With `NC(=O)CN1CC(O)CC1=O` (centres unmarked) [Oxiracetam], the “Literature Report of BBB Permeability” value is “Low [20]”.

For `CC[C@@H](C(N)=O)N1C[C@H](C=C(F)F)CC1=O` [Seletracetam], the “Literature Report of BBB Permeability” value was “Very good [19]”.
